Source: patent publication US11766430B2, “Methods of using a phenoxypropylamine compound to treat pain” (Minerva Neurosciences, Inc., priority 2018, dated 2023)
Entries after “also recorded” stand apart in the source; their conditions may differ.

How the values were obtained:
[1] = system: chemotherapy-induced peripheral neuropathic pain in rats; assay: Paclitaxel-induced peripheral neuropathic pain, paw withdrawal threshold with von Frey filaments, single administration (Example 5); assay type: in vivo, Male Sprague Dawley rats; details: for Paw withdrawal threshold (PWT) compared to vehicle (in words): Day 14; for Paw withdrawal threshold (PWT), Day 14 Avg., Mean: i.p., 2 hours prior to test, Count 12
Experimental: Assessment of neuropathic pain using von Frey filaments was performed. Rats were administered paclitaxel (2 mg/kg) on four alternate days (days 1, 3, 5 and 7). Baseline and post treatment paw withdrawal thresholds (PWT) were evaluated using von Frey filaments (Semmes-Weinstein filaments, Stoelting, Wood Dale, Ill., USA) of varying stiffness (0.4, 0.7, 1.2, 2.0, 3.6, 5.5, 8.5, 10, 15, 26 g). Animals were placed on a perforated metallic platform and allowed to acclimate to their surroundings for a minimum of 15 minutes before each test session. Each filament was presented perpendicular to the plantar surface with sufficient force to cause slight buckling against the paw, and then held until a positive response is noted (paw sharply withdrawn). As described by Chaplan, S. R. et al. “Qualitative Assessment of Tactile Allodynia in the Rat Paw” Journal of Neuroscience Methods, 53 (1994), 55-63 (“Chaplan”), once the threshold was crossed, the 2 responses straddling the threshold are retrospectively designated as the first 2 responses. Four additional responses were measured to stimuli varied sequentially up or down based on the animal's response. The 6 responses in the immediate vicinity of the threshold were used to calculate the 50% g threshold: 50% g threshold=(10^[Xf+k*d])/10000
Xf is the final filament used (in log units). The parameter k is from the Appendix 1 in Chaplan and was determined by the pattern of the von Frey responses (e.g. OXOXOX where ‘O’ indicates no response and ‘X’ denotes a withdrawal). The parameter d is the difference between stimuli which Chaplan used a constant d=0.224. To accommodate for the use of the 10 g and 26 g filaments, the exact difference between stimuli were used.
Male Sprague Dawley rats (from Envigo, Ind., USA) were used in the study. Animals were received at approximately 250 g and housed 3 per cage upon arrival. All rats were examined, handled, and weighed prior to initiation of the study to assure adequate health and suitability. During the course of the study, 12 h/12 h light/dark cycles was maintained. The room temperature was be maintained between 20 and 23° C. with a relative humidity maintained around 50%. Chow and water was provided ad libitum for the duration of the study. All testing was performed during the animal's light cycle phase. Every effort was made to minimize suffering of animals. Rats with baseline PWT less than 12 g were not included in the study. Rats were balanced by body weight and by their pre-paclitaxel PWT values. ANOVA found no significant differences between the treatment groups.
Paclitaxel was purchased from Biolyse Pharma (Ontario, Canada) and was injected i.p. (2 mg/kg) on four alternate days (day 1, 3, 5 and 7) for a total of 4 injections at a dose volume of 1 mL/kg.
Rats were subsequently balanced and assigned to treatment groups based on post-paclitaxel PWT values. On test day, PWT was assessed two hours post vehicle or MIN-117 injections and one hour after gabapentin administration.
Gabapentin was purchased from Toronto Research Chemicals and was dissolved in saline and administered orally 60 minutes prior to test at a dose volume of 1 mL/kg. MIN-117 (1, 3 and 10 mg/kg), formulated in 0.5% (w/v) hydroxypropylmethylcellulose (HPMC, Sigma-Aldrich), was administered i.p. at a dose volume of 1 mL/kg. MIN-117 was administered 2 hours prior to test.

[2] = system: paclitaxel-induced peripheral neuropathic pain in rats; assay: Prevention of paclitaxel-induced peripheral neuropathic pain, paw withdrawal threshold, chronic administration (Example 6); assay type: in vivo, Male Sprague Dawley rats; details: for PWT compared to vehicle (in words): days 10 and 14
Experimental: Male Sprague Dawley rats from Envigo were used in the study. Animals were received at approximately 250 g and housed 3 per cage upon arrival. All rats were examined, handled, and weighed prior to initiation of the study to assure adequate health and suitability. During the course of the study, 12/12 light/dark cycles was maintained. The room temperature was be maintained between 20 and 23° C. with a relative humidity maintained around 50%. Chow and water was provided ad libitum for the duration of the study. All testing was performed during the animal's light cycle phase.
Paclitaxel (2 mg/kg) was purchased from Biolyse Pharma and injected i.p. on four alternate days (day 1, 3, 5 and 7) for a total of 4 injections at a dose volume of 1 mL/kg.
Gabapentin (100 mg/kg) was dissolved in saline and administered orally at a dose volume of 1 mL/kg. For prevention study, gabapentin was administered on day 14, sixty minutes prior to test. For reversal study, gabapentin was administered once daily for 2 weeks. On test days it was administered 60 minutes prior to test.
Prevention study: MIN-117 (10 mg/kg) was formulated in 0.5% (w/v) hydroxypropylmethyl cellulose (HPMC) 8°-120 centipoises in water and was administered i.p once daily for 7 or 14 days at a dose volume of 1 mL/kg. On test days, MIN-117 was administered 2 hours prior to test.
Rats were administered paclitaxel (2 mg/kg) on four alternate days (days 1, 3, 5 and 7). Baseline and post treatment Paw Withdrawal Threshold (PWT) were evaluated using von Frey filaments (Semmes-Weinstein filaments, Stoelting, Wood Dale, Ill., USA) of varying stiffness (0.4, 0.7, 1.2, 2.0, 3.6, 5.5, 8.5, 10, 15, 26 g). Animals were placed on a perforated metallic platform and allowed to acclimate to their surroundings for a minimum of 15 minutes before each test session. Each filament was presented perpendicular to the plantar surface with sufficient force to cause slight buckling against the paw, and then held until a positive response is noted (paw sharply withdrawn). As described by Chaplan et al. 1994, once the threshold was crossed, the 2 responses straddling the threshold are retrospectively designated as the first 2 responses. Four additional responses were measured to stimuli varied sequentially up or down based on the animal's response. […] The parameter k is from the Appendix 1 in Chaplan and was determined by the pattern of the von Frey responses (e.g. OXOXOX where ‘O’ indicates no response and ‘X’ denotes a withdrawal). […]
PWT was measured according to the Schematics in FIG. 9 (prevention) and FIG. 10 (reversal study).
Data was analyzed by analysis of variance (ANOVA) followed by post-hoc comparisons where appropriate. […]

Cc1nnc(-c2cc3c(OC[C@@H](O)CN4CCC(c5ccc(Cl)c(Cl)c5)CC4)cccc3o2)o1.Cl [MIN-117, (2S)-1-(4-(3,4-dichlorophenyl)piperidin-1-yl)-3-((2-(5-methyl-1,3,4-oxadiazol-2-yl)benzofuran-4-yl)oxy)propan-2-ol hydrochloride]
Paw withdrawal threshold (PWT) compared to vehicle (in words) ([1]; 1 mg/kg i.p. 2 hours prior to test): did not show a significant increase in PWT
Paw withdrawal threshold (PWT) compared to vehicle (in words) ([1]; 3 mg/kg i.p. 2 hours prior to test, hydrochloride, 3 mg/kg): significant increase in PWT; also recorded: significantly reduced neuropathic pain
Paw withdrawal threshold (PWT) compared to vehicle (in words) ([1]; 10 mg/kg i.p. 2 hours prior to test, hydrochloride, 10 mg/kg): significant increase in PWT; also recorded: significantly reduced neuropathic pain
Mean Diff. of Day 14 Avg. PWT, Fisher's PLSD ([1]; Paclitaxel + Gabapentin (100 mg/kg), Paclitaxel + MIN-117 (1 mg/kg)): 14.200
Mean Diff. of Day 14 Avg. PWT, Fisher's PLSD ([1]; Paclitaxel + Gabapentin (100 mg/kg), Paclitaxel + MIN-117 (3 mg/kg)): 12.775
Mean Diff. of Day 14 Avg. PWT, Fisher's PLSD ([1]; Paclitaxel + Gabapentin (100 mg/kg), Paclitaxel + MIN-117 (10 mg/kg)): 11.802
Mean Diff. of Day 14 Avg. PWT, Fisher's PLSD ([1]; Paclitaxel + MIN-117 (1 mg/kg), Paclitaxel + MIN-117 (3 mg/kg)): −1.425
Mean Diff. of Day 14 Avg. PWT, Fisher's PLSD ([1]; Paclitaxel + MIN-117 (1 mg/kg), Paclitaxel + MIN-117 (10 mg/kg)): −2.399
Paw withdrawal threshold (PWT), Day 14 Avg., Mean ([1]; Paclitaxel + MIN-117 (1 mg/kg)): 5.433 g
Paw withdrawal threshold (PWT), Day 14 Avg., Mean ([1]; Paclitaxel + MIN-117 (3 mg/kg)): 6.858 g
Paw withdrawal threshold (PWT), Day 14 Avg., Mean ([1]; Paclitaxel + MIN-117 (10 mg/kg)): 7.832 g
Mean Diff. of Day 14 Avg. PWT, Fisher's PLSD ([1]; Paclitaxel + Vehicle, Paclitaxel + MIN-117 (1 mg/kg)): −1.558
Mean Diff. of Day 14 Avg. PWT, Fisher's PLSD ([1]; Paclitaxel + Vehicle, Paclitaxel + MIN-117 (3 mg/kg)): −2.984
Mean Diff. of Day 14 Avg. PWT, Fisher's PLSD ([1]; Paclitaxel + Vehicle, Paclitaxel + MIN-117 (10 mg/kg)): −3.957
PWT after cessation of treatment (in words) ([2]; 10 mg/kg i.p. for 7 or 14 days, day 21, one week or two weeks after cessation of treatment, hydrochloride): no analgesic effects; also recorded: returned to vehicle levels
PWT compared to vehicle (in words) ([2]; 10 mg/kg i.p. once daily for one week (7 days) starting one day prior to paclitaxel): significantly higher PWT
PWT compared to vehicle (in words) ([2]; 10 mg/kg i.p. once daily for two weeks (14 days) starting one day prior to paclitaxel, 2 hours post dosing): significantly higher PWT
